From EP1171107B1, “USE OF A PHARMACEUTICAL COMPOSITION IN THE MANUFACTURE OF A MEDICAMENT FOR THE TREATMENT OF PATHOLOGICAL CONDITIONS OF THE EYE CAUSED BY BACTERIA, VIRUSES, FUNGI, YEASTS AND PROTOZOA” (Dr. GERHARD MANN chem.-pharm. Fabrik GmbH, priority 1999, dated 2000)

Experiments:
Type in all cases: cell-based
[1] = system: E.coli; experiment: Quantitative germ count (re-isolation, surface method) after inoculating the test preparation; details: Ausgangskeimzahl 2,7 x 10^5 KBE/ml
Text: (§1) Escherichia (E.coli) Staphylococcus (S.aureus) Streptococcus (Sc.) Pneumoniae Pseudomonas (P.aeruginosa) Staphylococcus (S. epidermidis) Haemophilus (H. influenzae)
(§2) Die verschiedenen Testkeime wurde jeweils aus einem Lyophilisat in NaCl-Peptonpuffer homogenisiert und auf Caseinpepton-Sojymehlpepton. (Caso-) Agar (Fa. bioMérieux; Art. Nr. 43019) bez. Kochblut-Agar (Fa. bioMérieux; Art. Nr. 43109) subkultiviert. Die Teststämme wurden vor Versuchsbeginn durch Erstellen eines biochemischen Profils mittels ATB/Vitek-System (Fa. bioMérieux, Nürtingen) auf Reinheit und Identität überprüft.
(§3) Die Ausgangskeimzahl wurde im Oberflächenverfahren mit Hilfe eines Spiralplaters (Fa. Meintrup, Lähden) ermittelt und ist im einzelnen den Tabellen 1-12 zu entnehmen.
(§4) Die verschiedenen Testsubstanzen a. bis j. wurden jeweils zu 5 ml in sterile Zentrifugenröhrchen abgefüllt und mit ca. 10^5 KBE^*/ml (* = koloniebildende Einheiten) der oben genannten Testkeime kontaminiert. Pro Substanz wurde für jeden Testkeim und jede zu prüfende Testzeit ein separater Ansatz angeimpft, d.h.10 Testsubstanzen zu jeweils 7 Testzeiten und 6 Testkeime (= insgesamt 502 Testansätze). […] Der Überstand wurde dekantiert und das Pellet in 5 ml NaCl Peptonpuffer aufgenommen und resuspendiert. Die Suspension wurde erneut 10 Minuten bei 3000 rpm abzentrifugiert und 5 ml NaCl-Peptonpuffer aufgenommen und mittels Vortex homogenisiert.
(§5) Die anschließende Keimzahlbestimmung erfolgte im Oberflächenverfahren durch Ausspiralisieren eines […] Aliquots auf Caso-Agar bzw. für H. influenzae auf Kochblut-Agar. Die Platten wurden bei 33±2°C für max. 4 Tage bebrütet. Die Nachweisgrenze des Verfahrens liegt bei 100 KBE/ml.

[2] = system: H.influenzae; experiment: as above; details: Ausgangskeimzahl 2,8 x 10^5 KBE/ml
Text: as §1, §2, §3, §4, §5

[3] = system: S.aureus; experiment: as above; details: Ausgangskeimzahl 2,6 x 10^5 KBE/ml
Text: as §1, §2, §3, §4, §5

[4] = system: Sc. pneumoniae; experiment: as above; details: Ausgangskeimzahl 3,7 x 10^5 KBE/ml
Text: as §1, §2, §3, §4, §5

[5] = system: P.aeruginosa; experiment: as above; details: Ausgangskeimzahl 2,7 x 10^5 KBE/ml
Text: as §1, §2, §3
(§6) Die verschiedenen Testsubstanzen a. bis j. wurden jeweils zu 5 ml in sterile Zentrifugenröhrchen abgefüllt und mit ca. 10^5 KBE^*/ml (* = koloniebildende Einheiten) der oben genannten Testkeime kontaminiert. Pro Substanz wurde für jeden Testkeim und jede zu prüfende Testzeit ein separater Ansatz angeimpft, d.h.10 Testsubstanzen zu jeweils 7 Testzeiten und 6 Testkeime (= insgesamt 502 Testansätze). Nach 2, 6, 8, 24, 32, 48 und 72 Stunden wurde dann der jeweilige Testansatz 10 Minuten bei 3000 rpm abzentrifugiert. Der Überstand wurde dekantiert und das Pellet in 5 ml NaCl Peptonpuffer aufgenommen und resuspendiert. Die Suspension wurde erneut 10 Minuten bei 3000 rpm abzentrifugiert und 5 ml NaCl-Peptonpuffer aufgenommen und mittels Vortex homogenisiert.
as §5

[6] = system: S.epidermidis; experiment: as above; details: Ausgangskeimzahl 2,1 x 10^5 KBE/ml
Text: as §1, §2, §3, §6, §5

[7] = system: E.coli; experiment: Qualitative examination: enrichment of the inoculated test preparation in broth
Text: as §1, §2, §4
(§7) Jeweils 2 ml der Testansätze wurden in 20 ml Caso-Bouillon oder für H. influenzae, in Fildes-Medium der Firma Becton Dickinson, ARt. Nr. 0349-739, angereichert und ebenfalls maximal 4 Tage bei 33± 2°C bebrütet. Ein negatives Ergebnis der Anreicherung belegt die Elimination der inokulierten Keime.

[8] = system: S.aureus; experiment: as above
Text: as §1, §2, §4, §7

[9] = system: S.epidermidis; experiment: as above
Text: as §1, §2, §4, §7

[10] = system: Sc. pneumoniae; experiment: as above
Text: as §1, §2, §4, §7

[11] = system: P.aeruginosa; experiment: as above
Text: as §1, §2, §6, §7

Benzalkoniumchlorid [Benzalkoniumchlorid 0,001 Gew.-%]
Ergebnis der Reisolierung (in KBE/ml) ([1]; 2 h after inoculation): <100 KBE/ml
Ergebnis der Reisolierung (in KBE/ml) ([1]; 4 h after inoculation): <100 KBE/ml
Ergebnis der Reisolierung (in KBE/ml) ([1]; 6 h after inoculation): <100 KBE/ml
Ergebnis der Reisolierung (in KBE/ml) ([1]; 8 h after inoculation): <100 KBE/ml
Ergebnis der Reisolierung (in KBE/ml) ([1]; 24 h after inoculation): <100 KBE/ml
Ergebnis der Reisolierung (in KBE/ml) ([1]; 32 h after inoculation): <100 KBE/ml
Ergebnis der Reisolierung (in KBE/ml) ([1]; 48 h after inoculation): <100 KBE/ml
Ergebnis der Reisolierung (in KBE/ml) ([1]; 72 h after inoculation): <100 KBE/ml
Ergebnis der Reisolierung (in KBE/ml) ([2]; 2 h after inoculation): <100 KBE/ml
Ergebnis der Reisolierung (in KBE/ml) ([2]; 4 h after inoculation): <100 KBE/ml
Ergebnis der Reisolierung (in KBE/ml) ([2]; 6 h after inoculation): <100 KBE/ml
Ergebnis der Reisolierung (in KBE/ml) ([2]; 8 h after inoculation): <100 KBE/ml
Ergebnis der Reisolierung (in KBE/ml) ([2]; 24 h after inoculation): <100 KBE/ml
Ergebnis der Reisolierung (in KBE/ml) ([2]; 32 h after inoculation): <100 KBE/ml
Ergebnis der Reisolierung (in KBE/ml) ([2]; 48 h after inoculation): <100 KBE/ml
Ergebnis der Reisolierung (in KBE/ml) ([2]; 72 h after inoculation): <100 KBE/ml
Ergebnis der Reisolierung (in KBE/ml) ([3]; 2 h after inoculation): <100 KBE/ml
Ergebnis der Reisolierung (in KBE/ml) ([3]; 4 h after inoculation): <100 KBE/ml
Ergebnis der Reisolierung (in KBE/ml) ([3]; 6 h after inoculation): <100 KBE/ml
Ergebnis der Reisolierung (in KBE/ml) ([3]; 8 h after inoculation): <100 KBE/ml
Ergebnis der Reisolierung (in KBE/ml) ([3]; 24 h after inoculation): <100 KBE/ml
Ergebnis der Reisolierung (in KBE/ml) ([3]; 32 h after inoculation): <100 KBE/ml
Ergebnis der Reisolierung (in KBE/ml) ([3]; 48 h after inoculation): <100 KBE/ml
Ergebnis der Reisolierung (in KBE/ml) ([3]; 72 h after inoculation): <100 KBE/ml
Ergebnis der Reisolierung (in KBE/ml) ([4]; 2 h after inoculation): <100 KBE/ml
Ergebnis der Reisolierung (in KBE/ml) ([4]; 4 h after inoculation): <100 KBE/ml
Ergebnis der Reisolierung (in KBE/ml) ([4]; 6 h after inoculation): <100 KBE/ml
Ergebnis der Reisolierung (in KBE/ml) ([4]; 8 h after inoculation): <100 KBE/ml
Ergebnis der Reisolierung (in KBE/ml) ([4]; 24 h after inoculation): <100 KBE/ml
Ergebnis der Reisolierung (in KBE/ml) ([4]; 32 h after inoculation): <100 KBE/ml
Ergebnis der Reisolierung (in KBE/ml) ([4]; 48 h after inoculation): <100 KBE/ml
Ergebnis der Reisolierung (in KBE/ml) ([4]; 72 h after inoculation): <100 KBE/ml
Ergebnis der Reisolierung (in KBE/ml) ([5]; 2 h after inoculation): <100 KBE/ml
Ergebnis der Reisolierung (in KBE/ml) ([5]; 4 h after inoculation): <100 KBE/ml
Ergebnis der Reisolierung (in KBE/ml) ([5]; 6 h after inoculation): <100 KBE/ml
Ergebnis der Reisolierung (in KBE/ml) ([5]; 8 h after inoculation): <100 KBE/ml
Ergebnis der Reisolierung (in KBE/ml) ([5]; 24 h after inoculation): <100 KBE/ml
Ergebnis der Reisolierung (in KBE/ml) ([5]; 32 h after inoculation): <100 KBE/ml
Ergebnis der Reisolierung (in KBE/ml) ([5]; 48 h after inoculation): <100 KBE/ml
Ergebnis der Reisolierung (in KBE/ml) ([5]; 72 h after inoculation): <100 KBE/ml
Ergebnis der Reisolierung (in KBE/ml) ([6]; 2 h after inoculation): <100 KBE/ml
Ergebnis der Reisolierung (in KBE/ml) ([6]; 4 h after inoculation): <100 KBE/ml
Ergebnis der Reisolierung (in KBE/ml) ([6]; 6 h after inoculation): <100 KBE/ml
Ergebnis der Reisolierung (in KBE/ml) ([6]; 8 h after inoculation): <100 KBE/ml
Ergebnis der Reisolierung (in KBE/ml) ([6]; 24 h after inoculation): <100 KBE/ml
Ergebnis der Reisolierung (in KBE/ml) ([6]; 32 h after inoculation): <100 KBE/ml
Ergebnis der Reisolierung (in KBE/ml) ([6]; 48 h after inoculation): <100 KBE/ml
Ergebnis der Reisolierung (in KBE/ml) ([6]; 72 h after inoculation): <100 KBE/ml
Ergebnis der Reisolierung qualitiativ (+/-) nach Anreicherung ([7]; 2 h after inoculation): -
Ergebnis der Reisolierung qualitiativ (+/-) nach Anreicherung ([7]; 4 h after inoculation): -
Ergebnis der Reisolierung qualitiativ (+/-) nach Anreicherung ([7]; 6 h after inoculation): -
Ergebnis der Reisolierung qualitiativ (+/-) nach Anreicherung ([7]; 8 h after inoculation): -
Ergebnis der Reisolierung qualitiativ (+/-) nach Anreicherung ([7]; 24 h after inoculation): -
Ergebnis der Reisolierung qualitiativ (+/-) nach Anreicherung ([7]; 32 h after inoculation): -
Ergebnis der Reisolierung qualitiativ (+/-) nach Anreicherung ([7]; 48 h after inoculation): -
Ergebnis der Reisolierung qualitiativ (+/-) nach Anreicherung ([7]; 72 h after inoculation): -
Ergebnis der Reisolierung qualitiativ (+/-) nach Anreicherung ([8]; 2 h after inoculation): -
Ergebnis der Reisolierung qualitiativ (+/-) nach Anreicherung ([8]; 4 h after inoculation): -
Ergebnis der Reisolierung qualitiativ (+/-) nach Anreicherung ([8]; 6 h after inoculation): -
Ergebnis der Reisolierung qualitiativ (+/-) nach Anreicherung ([8]; 8 h after inoculation): -
Ergebnis der Reisolierung qualitiativ (+/-) nach Anreicherung ([8]; 24 h after inoculation): -
Ergebnis der Reisolierung qualitiativ (+/-) nach Anreicherung ([8]; 32 h after inoculation): -
Ergebnis der Reisolierung qualitiativ (+/-) nach Anreicherung ([8]; 48 h after inoculation): -
Ergebnis der Reisolierung qualitiativ (+/-) nach Anreicherung ([8]; 72 h after inoculation): -
Ergebnis der Reisolierung qualitiativ (+/-) nach Anreicherung ([9]; 2 h after inoculation): -
Ergebnis der Reisolierung qualitiativ (+/-) nach Anreicherung ([9]; 4 h after inoculation): -
Ergebnis der Reisolierung qualitiativ (+/-) nach Anreicherung ([9]; 6 h after inoculation): -
Ergebnis der Reisolierung qualitiativ (+/-) nach Anreicherung ([9]; 8 h after inoculation): -
Ergebnis der Reisolierung qualitiativ (+/-) nach Anreicherung ([9]; 24 h after inoculation): -
Ergebnis der Reisolierung qualitiativ (+/-) nach Anreicherung ([9]; 32 h after inoculation): -
Ergebnis der Reisolierung qualitiativ (+/-) nach Anreicherung ([9]; 48 h after inoculation): -
Ergebnis der Reisolierung qualitiativ (+/-) nach Anreicherung ([9]; 72 h after inoculation): -
Ergebnis der Reisolierung qualitiativ (+/-) nach Anreicherung ([10]; 2 h after inoculation): -
Ergebnis der Reisolierung qualitiativ (+/-) nach Anreicherung ([10]; 4 h after inoculation): -
Ergebnis der Reisolierung qualitiativ (+/-) nach Anreicherung ([10]; 6 h after inoculation): -
Ergebnis der Reisolierung qualitiativ (+/-) nach Anreicherung ([10]; 8 h after inoculation): -
Ergebnis der Reisolierung qualitiativ (+/-) nach Anreicherung ([10]; 24 h after inoculation): -
Ergebnis der Reisolierung qualitiativ (+/-) nach Anreicherung ([10]; 32 h after inoculation): -
Ergebnis der Reisolierung qualitiativ (+/-) nach Anreicherung ([10]; 48 h after inoculation): -
Ergebnis der Reisolierung qualitiativ (+/-) nach Anreicherung ([10]; 72 h after inoculation): -
Ergebnis der Reisolierung qualitiativ (+/-) nach Anreicherung ([11]; 2 h after inoculation): -
Ergebnis der Reisolierung qualitiativ (+/-) nach Anreicherung ([11]; 4 h after inoculation): -
Ergebnis der Reisolierung qualitiativ (+/-) nach Anreicherung ([11]; 6 h after inoculation): -
Ergebnis der Reisolierung qualitiativ (+/-) nach Anreicherung ([11]; 8 h after inoculation): -
Ergebnis der Reisolierung qualitiativ (+/-) nach Anreicherung ([11]; 24 h after inoculation): -
Ergebnis der Reisolierung qualitiativ (+/-) nach Anreicherung ([11]; 32 h after inoculation): -
Ergebnis der Reisolierung qualitiativ (+/-) nach Anreicherung ([11]; 48 h after inoculation): -
Ergebnis der Reisolierung qualitiativ (+/-) nach Anreicherung ([11]; 72 h after inoculation): -
